Measured values: article PMC12006171, “Marsupial cathelicidins: characterization, antimicrobial activity and evolution in this unique mammalian lineage” (Frontiers in Immunology, 2025)
≈ marks a conversion by molar mass, not a printed value. Like-named read-outs stand apart in the source and are kept apart here. Where a SMILES comes first, the peptide text is derived from it.

Tests used:
[1] = tested on: Escherichia coli ATCC 25922; experiment: microbe, parasite or virus in culture; format: cell-based
Procedure: (§1) Antimicrobial testing of 78 cathelicidin MPs was performed in two phases as outlined in Figure 1 . In phase I, 40 peptides (27 extant and 13 ancestral) were selected for testing based on rank (outlined above) and similarity to published marsupial cathelicidins with known antimicrobial activity ([33], [41]–[43]). These peptides were tested against nine bacteria (Staphylococcus aureus ATCC 29213 and clinical isolate, Escherichia coli ATCC 25922 and clinical isolate, Pseudomonas aeruginosa ATCC 27853 and clinical isolate, Streptococcus agalactiae ATCC 12386 and clinical isolate, Streptococcus pneumoniae ATCC 49619) and three fungi (Candida krusei ATCC 6258, Candida parapsilosis ATCC 22019, and Candida albicans clinical isolate). Details regarding these strains are available in Supplementary Table 4 . The antimicrobial activity of cathelicidins was determined as the minimum inhibitory concentration (MIC), which was the lowest concentration of cathelicidin that prevented visible bacterial or fungal growth, relative to the negative control. […] Minimum bactericidal concentration (MBC) and/or minimum fungicidal concentration (MFC) was conducted to determine microbicidal versus static action. Activity against S. aureus ATCC, E. coli ATCC, and Pseudomonas aeruginosa ATCC 27853 was examined in the presence of divalent cations to determine the impact of inhibitors.
(§2) In phase II, the remaining 38 peptides (37 extant and one ancestral) were tested against six bacteria (S. aureus ATCC and clinical isolate, E. coli ATCC and clinical isolate, and P. aeruginosa ATCC and clinical isolate). […] No further testing on phase II peptides was performed. Detailed methods for all assays are provided in subsequent sections.
(§3) Antimicrobial activity was determined using a broth microdilution susceptibility assay in 96 well polypropylene plates according to Clinical Laboratory Standards Institute guidelines M07-A and M26A as described previously ([33], [42], [43]). The bacterial and fungal isolates from humans and animals used in this study are outlined in Supplementary Table 4 . Only yeasts were included in the panel of fungi as they have been used in the susceptibility testing of eutherian ([3], [81]–[83]) and other marsupial cathelicidins previously ([33], [42], [43]). Cathelicidin mature peptides were solubilized in DMSO and serially diluted in duplicate from 128-0.25μg/mL in a final volume of 100µL. For bacteria, cathelicidins were diluted in Mueller Hinton Broth (MHB) with or without 10% lysed horse blood, and with (MH II B) or without (MHB) calcium and magnesium cations. For fungi, cathelicidins were diluted in Roswell Park Memorial Institute medium (RPMI)-1640 MOPS. Ampicillin or tetracycline were included as a positive control for Gram-positive and -negative bacteria respectively, while amphotericin B was used for fungi. A media-only negative control and growth control (no cathelicidin) were also included on each plate. Bacteria were sub-cultured on Muller Hinton agar (MHA) or sheep blood agar (BA), and fungi on Sabouraud dextrose agar (SAB), 20–24 hours prior to the test. Colonies were suspended in saline, the concentration adjusted to a 0.5 McFarland standard, and then diluted in media to a concentration of 1.0 x 10^6 cells/mL. Then, 100μL was added to each well of the cathelicidin dilution plate, giving a final inoculum density of 5 x 10^5 CFU/mL and cathelicidin concentration of 64-0.125μg/mL. Colony counts were performed on MHA/BA/SAB to confirm inoculum density. All plates were incubated at 35°C for 20–24 hours, depending on the strain.
(§4) Colonies were counted and compared to the colony count of the starting inoculum.

[2] = tested on: Escherichia coli clinical isolate - animal; experiment: microbe, parasite or virus in culture; format: cell-based
Procedure: as §1, §2, §3, §4

[3] = tested on: Pseudomonas aeruginosa ATCC 27853; experiment: microbe, parasite or virus in culture; format: cell-based; conditions: read-out: MIC P. aeruginosa ATCC
Procedure: as §1, §2, §3, §4

[4] = tested on: Staphylococcus aureus clinical isolate - animal; experiment: microbe, parasite or virus in culture; format: cell-based; conditions: read-out: MIC S. aureus
Procedure: as §1, §2, §3, §4

[5] = tested on: Staphylococcus aureus ATCC 29213; experiment: microbe, parasite or virus in culture; format: cell-based; conditions: read-out: MIC S. aureus ATCC
Procedure: as §1, §2, §3, §4

[6] = tested on: Pseudomonas aeruginosa clinical isolate - animal; experiment: microbe, parasite or virus in culture; format: cell-based; conditions: read-out: MIC P. aeruginosa
Procedure: as §1, §2, §3, §4

[7] = tested on: six bacteria (S. aureus, E. coli, P. aeruginosa; ATCC and clinical isolate); set-up: method as in 4 sources, ref Peel et al 2016 ||| ref Peel et al 2021 ||| ref Wang et al 2011 ||| ref Peel et al 2017; conditions: cited from earlier work
[8] = tested on: three fungi (Candida krusei, Candida parapsilosis, Candida albicans); set-up: method as in 4 sources, ref Peel et al 2016 ||| ref Peel et al 2021 ||| ref Wang et al 2011 ||| ref Peel et al 2017; conditions: cited from earlier work
[9] = clinical isolate, µM equivalent of Table 3
[10] = mature peptide (MP), Y/N summary, ref Peel et al 2017
[11] = mature peptide, Y/N summary from earlier study, ref Peel et al 2021
[12] = mature peptide, Y/N summary from earlier study, ref Peel et al 2017
[13] = mature peptide, Y/N summary from earlier study, ref Peel et al 2016
[14] = mature peptide, Y/N summary from earlier study, ref Wang et al 2011

Molecule: CC[C@H](C)[C@H](NC(=O)[C@H](CO)NC(=O)[C@H](CCCNC(=N)N)NC(=O)[C@H](CCCNC(=N)N)NC(=O)[C@@H]1CCCN1C(=O)[C@H](CCCNC(=N)N)NC(=O)[C@@H]1CCCN1C(=O)[C@H](Cc1ccccc1)NC(=O)[C@@H]1CCCN1C(=O)[C@H](Cc1ccccc1)NC(=O)CNC(=O)[C@@H]1CCCN1C(=O)[C@H](CCCNC(=N)N)NC(=O)[C@@H]1CCCN1C(=O)[C@H](Cc1ccccc1)NC(=O)[C@@H]1CCCN1C(=O)[C@H](Cc1ccccc1)NC(=O)CNC(=O)[C@@H]1CCCN1C(=O)[C@H](CCCNC(=N)N)NC(=O)[C@@H]1CCCN1C(=O)[C@H](Cc1ccccc1)NC(=O)[C@H](CO)NC(=O)[C@@H]1CCCN1C(=O)[C@H](CCCNC(=N)N)NC(=O)[C@@H]1CCCN1C(=O)[C@H](CCCNC(=N)N)NC(=O)[C@@H]1CCCN1C(=O)[C@H](CCCNC(=N)N)NC(=O)[C@@H]1CCCN1C(=O)[C@H](CC(C)C)NC(=O)[C@H](Cc1ccc(O)cc1)NC(=O)[C@@H]1CCCN1C(=O)[C@H](CCCNC(=N)N)NC(=O)[C@H](CCCNC(=N)N)NC(=O)[C@H](CCC(=O)O)NC(=O)[C@H](CCCNC(=N)N)NC(=O)[C@@H](N)CCCNC(=N)N)C(=O)O [MyfaCath3] (H-RRERRPYLPRPRPRPSFPRPGFPFPRPGFPFPRPRRSI-OH)
- MBC E. coli ATCC ([1]; ATCC 25922): 1.7 µM (≈ 7.99 µg/mL)
- MIC E. coli ATCC ([1]; ATCC 25922): 1.7 µM (≈ 7.99 µg/mL)
- MBC E. coli ([2]; clinical isolate - animal): 3.4 µM (≈ 16 µg/mL)
- MIC E. coli ([2]; clinical isolate - animal): 3.4 µM (≈ 16 µg/mL)
- MIC ([3]; ATCC 27853): >13.6 µM
- MIC ([4]; clinical isolate - animal): >13.6 µM
- MIC ([5]; ATCC 29213): >13.6 µM
- MIC ([6]; clinical isolate - animal): >13.6 µM

Molecule: CC[C@H](C)[C@H](NC(=O)[C@H](C)NC(=O)[C@H](CC(N)=O)NC(=O)[C@H](CCCCN)NC(=O)[C@@H](NC(=O)[C@@H](NC(=O)[C@H](CC(N)=O)NC(=O)[C@H](CCCCN)NC(=O)[C@@H](NC(=O)[C@H](CCCCN)NC(=O)[C@H](CC(=O)O)NC(=O)CNC(=O)[C@H](C)NC(=O)[C@H](CCCNC(=N)N)NC(=O)[C@H](CCCCN)NC(=O)[C@H](CC(C)C)NC(=O)[C@H](Cc1ccccc1)NC(=O)[C@H](CC(N)=O)NC(=O)[C@H](CCCCN)NC(=O)[C@H](Cc1ccccc1)NC(=O)[C@H](CCCCN)NC(=O)[C@H](CCC(=O)O)NC(=O)[C@H](Cc1ccccc1)NC(=O)[C@@H](NC(=O)[C@H](CCCNC(=N)N)NC(=O)[C@H](CC(C)C)NC(=O)[C@H](CCCCN)NC(=O)[C@H](CCCCN)NC(=O)[C@@H](NC(=O)[C@H](CC(N)=O)NC(=O)[C@H](CCC(=O)O)NC(=O)[C@@H]1CCCN1C(=O)[C@@H](N)CCCNC(=N)N)[C@@H](C)CC)C(C)C)[C@@H](C)CC)[C@@H](C)O)[C@@H](C)CC)C(=O)N[C@@H](CC(N)=O)C(=O)N[C@@H](CC(N)=O)C(=O)N[C@@H](CC(C)C)C(=O)N[C@@H](Cc1ccccc1)C(=O)N[C@@H](CO)C(=O)O [PeguCath3] (H-RPENIKKLRVFEKFKNFLKRAGDKIKNTIKNAINNLFS-OH)
- MIC ([1]; ATCC 25922, read-out: MIC E. coli ATCC): 14.1 µM (≈ 63.9 µg/mL)
- MIC ([2]; clinical isolate - animal): >14.1 µM
- MIC ([3]; ATCC 27853): >14.1 µM
- MIC ([4]; clinical isolate - animal): >14.1 µM
- MIC ([5]; ATCC 29213): >14.1 µM
- MIC ([6]; clinical isolate - animal): >14.1 µM

Molecule: CC[C@H](C)[C@H](NC(=O)[C@H](CO)NC(=O)[C@H](CCCNC(=N)N)NC(=O)CNC(=O)[C@@H]1CCCN1C(=O)[C@H](CCCNC(=N)N)NC(=O)[C@@H]1CCCN1C(=O)[C@H](CCCNC(=N)N)NC(=O)[C@@H]1CCCN1C(=O)[C@H](CCCNC(=N)N)NC(=O)[C@@H]1CCCN1C(=O)[C@H](Cc1ccccc1)NC(=O)[C@H](CC(N)=O)NC(=O)[C@@H]1CCCN1C(=O)[C@H](CCCNC(=N)N)NC(=O)[C@@H]1CCCN1C(=O)[C@H](Cc1ccccc1)NC(=O)[C@H](CCCNC(=N)N)NC(=O)[C@@H]1CCCN1C(=O)[C@H](CCCNC(=N)N)NC(=O)[C@@H]1CCCN1C(=O)[C@H](CC(C)C)NC(=O)[C@H](Cc1ccc(O)cc1)NC(=O)[C@@H]1CCCN1C(=O)[C@H](CCCNC(=N)N)NC(=O)[C@H](CCCNC(=N)N)NC(=O)[C@@H](NC(=O)[C@H](CCCNC(=N)N)NC(=O)[C@H](CCCNC(=N)N)NC(=O)[C@H](C)NC(=O)[C@H](C)NC(=O)[C@H](CC(C)C)NC(=O)[C@H](CC(C)C)NC(=O)CN)[C@@H](C)CC)C(=O)O [SmcrCath12] (H-GLLAARRIRRPYLPRPRFPRPNFPRPRPRPGRSI-OH)
- MBC E. coli ATCC ([1]; value in brackets, µM equivalent of Table 3): 1.9 µM
- MIC E. coli ATCC ([1]; µM equivalent of Table 3): 1.9 µM
- MBC E. coli ([2]; clinical isolate, value in brackets, µM equivalent of Table 3): 3.9 µM
- MIC E. coli [2, 9]: 3.9 µM
- MIC ([3]; µM equivalent of Table 3): >15.6 µM
- MIC [4, 9]: >15.6 µM
- MIC ([5]; µM equivalent of Table 3): >15.6 µM
- MIC [6, 9]: >15.6 µM

Molecule: APVTPAPPGFTTSSKKKGKKKLPYTVIFGRTDFP [ModoCath3]
- Antibacterial (MIC <64ug/mL) [7, 10]: N (Peel et al 2017) (Antibacterial (MIC <64ug/mL))
- Antifungal (MIC <64ug/mL) [8, 10]: N (Peel et al 2017) (Antifungal (MIC <64ug/mL))

Molecule: ASSGIIDTSSLPPKIRQIYNQAVYDTLVGILRNF [PhciCath6]
- Antibacterial (MIC <64ug/mL) [7, 11]: N (Peel et al 2021) (Antibacterial (MIC <64ug/mL))
- Antifungal (MIC <64ug/mL) [8, 11]: N (Peel et al 2021) (Antifungal (MIC <64ug/mL))

Molecule: GEKVKTRFIAAIEKLIDTFLP [MaeuCath3]
- Antibacterial (MIC <64ug/mL) [7, 12]: N (Peel et al 2017) (Antibacterial (MIC <64ug/mL))
- Antifungal (MIC <64ug/mL) [8, 12]: N (Peel et al 2017) (Antifungal (MIC <64ug/mL))

Molecule: GIKHILFMAKTKLPRATCTAEIKENCDRKK [SahaCath1]
- Antibacterial (MIC <64ug/mL) [7, 13]: N (Peel et al 2016) (Antibacterial (MIC <64ug/mL))
- Antifungal (MIC <64ug/mL) [8, 13]: N (Peel et al 2016) (Antifungal (MIC <64ug/mL))

Molecule: IKIFIPKGFYKGIQLVNEIIKENNERQKQKP [ModoCath12]
- Antibacterial (MIC <64ug/mL) [7, 10]: N (Peel et al 2017) (Antibacterial (MIC <64ug/mL))
- Antifungal (MIC <64ug/mL) [8, 10]: N (Peel et al 2017) (Antifungal (MIC <64ug/mL))

Molecule: KDILKNNNIIILPGSNEK [OranCath1]
- Antibacterial (MIC <64ug/mL) ([7]; mature peptide (MP), Y/N summary, ref Wang et al 2011): Y (Wang et al 2011) (Antibacterial (MIC <64ug/mL))

Molecule: KREDFLDQIIRDFRNFIYQKYRRLRDEFRKLRDILSG [SahaCath4]
- Antibacterial (MIC <64ug/mL) [7, 13]: N (Peel et al 2016) (Antibacterial (MIC <64ug/mL))
- Antifungal (MIC <64ug/mL) [8, 13]: N (Peel et al 2016) (Antifungal (MIC <64ug/mL))

Molecule: KRGFGKKLRKRLKKFRNSIKKRLKNFNVVIPIPLPG [MaeuCath1]
- Antibacterial (MIC <64ug/mL) [7, 14]: Y (Wang et al 2011) (Antibacterial (MIC <64ug/mL))
- Antifungal (MIC <64ug/mL) [8, 14]: Y (Wang et al 2011) (Antifungal (MIC <64ug/mL))
